Experimental data published in US6730666B1, “Pharmaceutical compositions comprising porphyrins and some novel porphyrin derivatives” (Yeda Research and Development Co. Ltd., priority 1998, dated 2004).

Tests used:
[1] = system: NIH 3T3 cells expressing signal peptide bFGF; assay: Tumor formation induced by signal peptide bFGF expressing NIH 3T3 cells in nude mice; format: in vivo, Balb/C nude mice; details: free P1, 25 μg/g of body mass IP twice a week, after 4 weeks
Protocol: (v) Inhibition by porphyrins of tumor formation induced by signal peptide bFGF expressing cells NIH 3T3 cells expressing signal peptide bFGF were injected subcutaneously to Balb/C nude mice as described (Yayon and Klagsbrun, 1990). Porphyrin/corrole compound at 25 μg/g of body mass was injected IP (intraperitoneally) twice a week and after 4 weeks the tumor size was measured.
After establishing the ability of P1 to inhibit FGF biological activity in vitro, the capacity of P1 to inhibit bFGF-induced tumor growth and metastasis was evaluated in vivo. First, the inhibition of tumor growth induced by signal peptide bFGF in a nude mice model was measured (Methods, section (v)). Upon addition of a signal peptide residue to bFGF, the protein is capable of transforming NIH 3T3 cells which, when injected to nude mice, grow and form a tumor Rayon & Klagsbrun, 1990). NIH 3T3 cells expressing signal peptide bFGF were injected subcutaneously to Balb/C nude mice, and P1 either free or liposome incorporated (as described by Jori and Reddi, 1993) (25 μg/g of body mass) were given twice a week by intraperitoneal injection.

[2] = system: Lewis lung carcinoma (LLC) D122 cells; assay: Lewis lung carcinoma primary tumor growth (foot pad); format: in vivo, C57 black mice; details: 25 μg/g of body mass IP twice a week
Protocol: (vii) Lewis lung carcinoma tumor assay. Murine Lewis lung carcinoma (LLC) D122 cells (1×10^6 cells/[…] PBS) were injected into the foot pads of 10-week old C57 black mice (O'Reilly et al, 1994). Twenty five μg/g of body mass of porphyrin or corrole compound dissolved in PBS were injected IP twice a week to the treated group, and tumor size was measured periodically in order to follow primary tumor formation. In order to evaluate inhibition of lung metastasis by porphyrin or corrole compound, the primary tumors were allowed to develop over a period of six weeks to a volume of approximately 8 mm^3; after which the tumors were removed and metastases were allowed to develop for four weeks. During this time the treated group received 25 μg/g of body mass of porphyrin or corrole compound IP twice a week. Subsequently the mice were sacrificed, dissected and the lungs removed and photographed. The extent of lung metastasis was measured by weighing the lungs.
Inhibition of primary tumor growth was tested using the well-established LLC murine tumor growth and metastasis model (Methods, section (vii)). LLC D122 cells (200,000 cells per mouse) were injected into the foot pads of 10-week old C57 black mice. […] The inhibition of the foot pad primary carcinoma tumor growth was statistically established and reproducible in five experiments.

[3] = biological target: T1, VEGF receptor KDR (Homo sapiens, UniProt P35968); assay: Binding of 125I-VEGF to endothelial cells transfected with VEGF receptor KDR; parameters: species or system bovine; details: FIG. 10A
T1 construct: expressed in transfected cells; host or cells: bovine aortic endothelial cells
T1 sequence (P35968 20-1356): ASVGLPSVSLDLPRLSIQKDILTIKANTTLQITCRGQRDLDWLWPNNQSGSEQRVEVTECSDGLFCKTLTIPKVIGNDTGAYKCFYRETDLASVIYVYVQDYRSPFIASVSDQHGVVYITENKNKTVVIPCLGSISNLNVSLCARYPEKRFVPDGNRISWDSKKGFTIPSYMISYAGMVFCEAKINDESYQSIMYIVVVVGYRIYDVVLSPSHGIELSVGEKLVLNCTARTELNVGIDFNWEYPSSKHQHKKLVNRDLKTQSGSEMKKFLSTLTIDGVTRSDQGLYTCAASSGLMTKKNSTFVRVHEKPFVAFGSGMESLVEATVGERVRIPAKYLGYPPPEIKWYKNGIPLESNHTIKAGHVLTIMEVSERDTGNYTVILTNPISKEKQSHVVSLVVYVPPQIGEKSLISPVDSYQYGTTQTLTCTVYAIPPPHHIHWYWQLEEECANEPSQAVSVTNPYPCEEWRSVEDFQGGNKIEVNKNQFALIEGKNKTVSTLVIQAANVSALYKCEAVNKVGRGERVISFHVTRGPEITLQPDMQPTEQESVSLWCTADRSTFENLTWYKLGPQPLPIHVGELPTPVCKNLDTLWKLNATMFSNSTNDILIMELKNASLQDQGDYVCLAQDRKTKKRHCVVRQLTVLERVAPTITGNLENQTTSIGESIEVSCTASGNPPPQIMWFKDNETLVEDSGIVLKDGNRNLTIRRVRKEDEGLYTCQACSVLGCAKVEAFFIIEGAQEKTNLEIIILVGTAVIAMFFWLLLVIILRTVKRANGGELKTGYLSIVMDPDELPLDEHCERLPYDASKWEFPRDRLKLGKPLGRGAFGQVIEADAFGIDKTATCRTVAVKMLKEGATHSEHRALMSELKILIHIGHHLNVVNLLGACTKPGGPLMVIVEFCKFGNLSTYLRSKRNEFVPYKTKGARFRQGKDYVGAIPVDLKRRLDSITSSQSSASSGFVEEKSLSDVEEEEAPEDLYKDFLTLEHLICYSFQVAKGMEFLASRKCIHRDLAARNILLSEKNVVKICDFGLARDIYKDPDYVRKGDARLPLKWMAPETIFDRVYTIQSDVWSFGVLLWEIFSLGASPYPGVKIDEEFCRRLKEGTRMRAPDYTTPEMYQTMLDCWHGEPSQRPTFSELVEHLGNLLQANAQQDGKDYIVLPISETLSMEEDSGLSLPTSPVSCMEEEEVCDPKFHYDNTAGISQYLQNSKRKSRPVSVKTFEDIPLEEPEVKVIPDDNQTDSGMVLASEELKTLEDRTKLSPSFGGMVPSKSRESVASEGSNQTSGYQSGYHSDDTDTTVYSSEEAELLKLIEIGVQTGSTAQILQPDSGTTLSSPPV
Protocol: Binding of ^125I-VEGF to confluent monolayers of endothelial cells expressing KDR was performed as described in Methods, section (x), in the presence of increasing concentrations of P1 and of unlabeled VEGF; and
x) Binding of ^125I-VEGF to cells. Confluent cultures of bovine aortic endothelial cells transfected with the VEGF receptor KDR were tested for binding of radiolabeled ^125I-VEGF as described in method (iv) above for the FGFR-1 expressing cells.

[4] = biological target: T2, flt-1 VEGF receptor AP fusion protein (Homo sapiens, UniProt P17948); assay: Binding of soluble VEGF receptor flt-1-AP fusion protein to immobilized VEGF; details: FIG. 10B; read-out: IC50, inhibition of flt-1-AP binding to immobilized VEGF
T2 construct: soluble VEGF receptor flt-1-AP fusion protein; made in house
T2 sequence (P17948 27-758 limits assumed): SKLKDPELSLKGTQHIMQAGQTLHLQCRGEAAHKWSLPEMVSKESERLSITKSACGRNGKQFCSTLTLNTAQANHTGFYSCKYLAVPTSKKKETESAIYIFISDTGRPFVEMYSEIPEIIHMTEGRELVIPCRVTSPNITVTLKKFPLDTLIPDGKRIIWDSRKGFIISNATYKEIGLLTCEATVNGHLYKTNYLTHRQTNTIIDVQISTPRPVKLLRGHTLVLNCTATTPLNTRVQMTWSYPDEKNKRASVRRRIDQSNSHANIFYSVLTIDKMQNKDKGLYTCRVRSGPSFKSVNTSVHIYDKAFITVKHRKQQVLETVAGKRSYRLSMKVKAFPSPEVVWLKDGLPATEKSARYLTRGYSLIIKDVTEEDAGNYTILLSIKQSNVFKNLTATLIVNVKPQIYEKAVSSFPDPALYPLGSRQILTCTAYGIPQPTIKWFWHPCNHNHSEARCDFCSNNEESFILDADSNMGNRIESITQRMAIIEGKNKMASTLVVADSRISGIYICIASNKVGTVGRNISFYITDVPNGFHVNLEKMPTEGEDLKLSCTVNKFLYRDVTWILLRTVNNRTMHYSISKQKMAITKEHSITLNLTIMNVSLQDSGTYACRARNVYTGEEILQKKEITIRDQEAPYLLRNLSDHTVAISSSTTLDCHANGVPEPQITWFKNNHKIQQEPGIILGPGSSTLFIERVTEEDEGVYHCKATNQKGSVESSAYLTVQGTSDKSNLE
Source text: ix) Binding of soluble VEGF receptor alkaline phosphatase fusion protein to immobilized VEGF. The flt-1 VEGF receptor was expressed as a fusion protein with AP as previously described (Roeckl et al, 1998) and tested for its binding capacity to immobilized VEGF as described in method (ii) above for the FGF receptor.

[5] = biological target: EGF tyrosine kinase receptor (Homo sapiens, UniProt P00533); assay: Binding of EGF to its high affinity tyrosine kinase receptor
Chain of EGF tyrosine kinase receptor (P00533 25-1210): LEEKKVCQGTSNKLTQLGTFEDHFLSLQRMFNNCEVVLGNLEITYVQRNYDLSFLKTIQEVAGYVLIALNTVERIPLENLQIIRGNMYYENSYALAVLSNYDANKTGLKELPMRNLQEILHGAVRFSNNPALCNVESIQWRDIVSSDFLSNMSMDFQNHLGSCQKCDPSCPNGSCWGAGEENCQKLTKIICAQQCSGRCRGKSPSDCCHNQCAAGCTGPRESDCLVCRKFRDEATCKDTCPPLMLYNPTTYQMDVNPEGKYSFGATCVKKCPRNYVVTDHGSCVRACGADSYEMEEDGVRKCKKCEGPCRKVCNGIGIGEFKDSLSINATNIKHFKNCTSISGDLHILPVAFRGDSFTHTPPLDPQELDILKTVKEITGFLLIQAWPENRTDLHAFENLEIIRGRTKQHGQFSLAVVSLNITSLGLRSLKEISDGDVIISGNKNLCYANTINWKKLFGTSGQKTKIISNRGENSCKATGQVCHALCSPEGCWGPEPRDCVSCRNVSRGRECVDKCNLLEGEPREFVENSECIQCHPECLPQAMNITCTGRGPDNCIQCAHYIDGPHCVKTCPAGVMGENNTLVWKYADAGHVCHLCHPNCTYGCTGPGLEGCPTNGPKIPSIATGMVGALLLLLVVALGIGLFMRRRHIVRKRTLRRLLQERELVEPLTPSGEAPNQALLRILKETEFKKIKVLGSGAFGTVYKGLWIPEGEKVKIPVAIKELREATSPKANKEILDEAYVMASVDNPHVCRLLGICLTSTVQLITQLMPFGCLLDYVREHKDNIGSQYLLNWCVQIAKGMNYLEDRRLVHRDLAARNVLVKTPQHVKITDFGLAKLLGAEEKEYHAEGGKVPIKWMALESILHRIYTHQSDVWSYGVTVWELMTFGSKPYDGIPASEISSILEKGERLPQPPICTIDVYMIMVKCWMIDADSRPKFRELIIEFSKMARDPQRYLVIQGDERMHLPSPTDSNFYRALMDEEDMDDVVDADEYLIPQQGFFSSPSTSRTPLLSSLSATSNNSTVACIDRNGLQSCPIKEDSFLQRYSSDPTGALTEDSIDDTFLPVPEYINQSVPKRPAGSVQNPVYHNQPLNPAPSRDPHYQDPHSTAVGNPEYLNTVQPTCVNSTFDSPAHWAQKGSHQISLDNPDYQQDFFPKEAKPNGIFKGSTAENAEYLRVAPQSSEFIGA

[6] = biological target: T3, FGFR-3 (Homo sapiens, UniProt P22607); assay: FGFR-3 tyrosine phosphorylation immunoblot (FGF-9 induced); format: cell-based; details: FIG. 14
T3 construct: expressed in transfected cells; host or cells: CHO cells (mutant 745)
T3 sequence (P22607 23-806, species assumed): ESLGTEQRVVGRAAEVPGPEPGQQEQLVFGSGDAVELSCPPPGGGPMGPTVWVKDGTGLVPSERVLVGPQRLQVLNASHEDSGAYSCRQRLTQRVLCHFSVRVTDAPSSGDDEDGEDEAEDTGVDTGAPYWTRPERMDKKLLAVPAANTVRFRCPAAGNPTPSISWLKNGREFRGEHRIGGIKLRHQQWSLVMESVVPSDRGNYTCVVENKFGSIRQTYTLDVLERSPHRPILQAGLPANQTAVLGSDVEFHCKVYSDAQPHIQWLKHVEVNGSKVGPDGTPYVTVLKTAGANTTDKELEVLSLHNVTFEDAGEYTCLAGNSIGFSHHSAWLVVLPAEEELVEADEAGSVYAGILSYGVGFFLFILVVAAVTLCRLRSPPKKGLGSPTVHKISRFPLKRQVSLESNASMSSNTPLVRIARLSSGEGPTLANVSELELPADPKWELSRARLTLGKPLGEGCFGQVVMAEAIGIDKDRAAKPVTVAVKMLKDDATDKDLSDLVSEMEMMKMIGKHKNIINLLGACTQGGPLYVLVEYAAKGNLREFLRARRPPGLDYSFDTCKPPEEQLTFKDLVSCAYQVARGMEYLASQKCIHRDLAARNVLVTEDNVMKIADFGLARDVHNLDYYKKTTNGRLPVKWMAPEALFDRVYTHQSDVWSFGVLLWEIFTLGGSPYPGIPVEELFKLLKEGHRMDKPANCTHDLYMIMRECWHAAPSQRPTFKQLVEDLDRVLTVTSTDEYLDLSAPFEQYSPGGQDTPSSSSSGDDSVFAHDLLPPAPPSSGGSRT
Protocol: (§1) (viii) Immunoblots. To the overnight serum-starved cells (2 plates for each treatment), 500 μl of F12^++ medium were added which either contained or not the respective porphyrin or corrole compound in a final concentration of […] for 40 min at 37° C. One of the two plates of each treatment was then stimulated with FGF9 (+) (75 ng/ml) and to the second plate only medium (−) was added for 10 min at 37° C. The cells were washed twice with PBS. 600 μl of SBN lysis buffer containing 1% NP-40 and 1 mM vanadate were added and left on ice for 10 min. The plates were then scraped and left on ice for additional 10 min. The lysate was span down in Eppendorf centrifuge for 15 min, 15000 rpm at 4° C. The supernatants were kept and Bradford protein determinant on assay was performed in the samples. 500 μg protein from each sample were taken for immunoprecipitation with 7.5 μl antibody against FGFR-3, 4 hr at 4° C.
In order to measure the ability of the porphyrins to inhibit the receptor activation on an enzymatic level as well, FGFR-3 tyrosine phosphorylation was measured in the presence of P16, as described in Methods, section (viii).

[7] = system: PLC-γ; assay: PLC-γ phosphorylation in FGFR-3 expressing cells induced by FGF-9; format: cell-based; details: FIG. 15A
Protocol: as §1
(§2) These findings support the notion that the porphyrins can serve for treating FGFR-3 related growth disorders. ERK1 and ERK2 are two isoforms of ERK.

[8] = system: ERK; assay: ERK phosphorylation in FGFR-3 expressing cells induced by FGF-9; format: cell-based; details: FIG. 15B
Protocol: as §1, §2

| Compound | Inhibition of tumor formation in nude mice, in words [1] | Inhibition of primary tumor growth in LLC model, in words [2] | Inhibition of 125I-VEGF binding to KDR/flk-1 expressing cells, in words [3] | IC50 [4] | Inhibition of EGF binding to its receptor [5] | Effect on FGFR-3 tyrosine phosphorylation [6] | Effect on PLC-γ activation [7] | Effect on ERK activation [8] |
| --- | --- | --- | --- | --- | --- | --- | --- | --- |
| C[n+]1ccc(-c2c3nc(c(-c4cc[n+](C)cc4)c4ccc([nH]4)c(-c4cc[n+](C)cc4)c4nc(c(-c5cc[n+](C)cc5)c5ccc2[nH]5)C=C4)C=C3)cc1 [Compound P1, 5,10,15,20-Tetrakis(N-methyl-4-pyridylium)-21H,23H-porphine tetra-p-tosylate] | clear inhibition of tumor formation | marked inhibition in primary tumor growth | efficiently inhibits | ~40 nM | does not inhibit |  |  |  |
| C[n+]1ccc(-c2c3nc(c(-c4cc[n+](C)cc4)c4ccc([nH]4)c(-c4c(F)c(F)c(F)c(F)c4F)c4nc(c(-c5cc[n+](C)cc5)c5ccc2[nH]5)C=C4)C=C3)cc1.[I-].[I-].[I-] [Compound P16, 5-Pentafluorophenyl-10,15,20-tris(N-methyl-4-pyridylium)-21H,23H-porphine triiodide] |  |  |  |  |  | reduced both the basal and, to a much greater extent, the FGF-9 induced phosphorylation of FGFR-3 | clear reduction in the activation | clear reduction in the activation |
